Drawing on ChEMBL document CHEMBL1129742, “Development of a high specific activity sulfur-35-labeled sulfonamide radioligand that allowed the identification of a new growth hormone secretagogue receptor” (J Med Chem, 1996), this text covers EC50 and Kd for three molecules.

By EC50 is commonly meant the concentration needed to bring the measured effect to its halfway point. The Kd is the constant that tells how readily two partners part at equilibrium.

The species named for test [1] is Rattus norvegicus. Briefly: Effective Concentration for GH secretion from rat pituitary cell was determined. It is filed as functional. As to conditions: Pituitary gland cell.
Test [2] can be described thus: Dissociation constant was evaluated which is similar to Ki (inhibitory constant).

Molecules are shown by their SMILES. Non-standard residues stand in square brackets, D forms with d. Residues, ends and D or L forms follow the SMILES beside them. Some results are limits rather than exact numbers.

With `CC(C)(N)CC(=O)N[C@H]1CCc2ccccc2N(Cc2ccc(-c3ccccc3-c3nn[nH]n3)cc2)C1=O`, in test [1], the concentration giving a half-maximal response (EC50) was over 5000 nM. On to `C[C@H](NC(=O)[C@@H](Cc1c[nH]c2ccccc12)NC(=O)[C@@H](N)Cc1c[nH]cn1)C(=O)N[C@@H](Cc1c[nH]c2ccccc12)C(=O)N[C@H](Cc1ccccc1)C(=O)N[C@@H](CCCCN)C(N)=O` (H-H[dW]AW[dF]K-NH2), for which the 50% effective concentration (EC50) in test [1] stood at 10 nM.

As for `CC(C)(N)C(=O)N[C@H](COCc1ccccc1)C(=O)N1CCC2(CC1)CN(S(C)(=O)=O)c1ccccc12` [IBUTAMOREN], in test [2], the dissociation constant (Kd) came to 0.161 nM. Also, the EC50 in test [1] was determined as […].
